For 65 compounds, pest or weed control results are on record in patent US20120129875A1, “SUBSTITUTED QUINAZOLINES AS FUNGICIDES” (SYNGENTA CROP PROTECTION, LLC, priority 2009, published 2012).

Format in all cases: in vivo
The subject of one test is Alternaria solani. The test is described as follows: Alternaria solani / tomato / preventative (Alternaria on tomato). The conditions noted are these: tomato plants cv. Roter Gnom, inoculated two days after application, vs untreated control, read-out: disease control. How it is done: Alternaria solani/Tomato/Preventative (Alternaria on Tomato) 4-week old tomato plants cv. Roter Gnom are treated with the formulated test compound in a spray chamber. The test plants are inoculated by spraying them with a spore suspension two days after application. The inoculated test plants are incubated at 22/18° C. (day/night) and 95% rh in a greenhouse and the percentage leaf area covered by disease is assessed when an appropriate level of disease appears on untreated check plants (5-7 days after application).

In the next test the test system is Plasmopara viticola. The test is described as follows: Plasmopara viticola / grape / preventative (grape downy mildew). The following applies: grape seedlings cv. Gutedel, inoculated one day after application, vs untreated control, read-out: disease control. How it is done: Plasmopara viticola/Grape/Preventative (Grape Downy Mildew)
5-week old grape seedlings cv. Gutedel are treated with the formulated test compound in a spray chamber. The test plants are inoculated by spraying a sporangia suspension on their lower leaf surface one day after application. The inoculated test plants are incubated at 22° C. and 100% rh in a greenhouse and the percentage leaf area covered by disease is assessed when an appropriate level of disease appears on untreated check plants (6-8 days after application).

Test [1] has as its system Pyrenophora teres (Helminthosporium teres). The test is described as follows: Pyrenophora teres (Helminthosporium teres) / barley / preventative (net blotch on barley). The following applies: barley plants cv. Regina, inoculated 2 days after application, vs untreated control, read-out: disease control. As to the method: Pyrenophora teres (Helminthosporium teres)/Barley/Preventative (Net Blotch on Barley) 1-week old barley plants cv. Regina are treated with the formulated test compound in a spray chamber. The test plants are inoculated by spraying them with a spore suspension 2 days after application. The inoculated test plants are incubated at 20° C. and 95% rh and the percentage leaf area covered by disease is assessed when an appropriate level of disease appears on untreated check plants (5-7 days after application).

The subject of test [2] is Phaeosphaeria nodorum (Septoria nodorum). Nature of the test: Phaeosphaeria nodorum (Septoria nodorum) / wheat / leaf disc preventative (glume blotch). The conditions noted are these: Parastagonospora nodorum, foliar, wheat leaf segments cv. Kanzler on agar, inoculated 2 days after application, vs untreated control, read-out: disease control. As to the method:
Phaeosphaeria nodorum (Septoria nodorum)/Wheat/Leaf Disc Preventative (Glume Blotch) Wheat leaf segments cv. Kanzler are placed on agar in a multiwell plate (24-well format) and sprayed with the formulated test compound diluted in water. The leaf disks are inoculated with a spore suspension of the fungus 2 days after application. The inoculated test leaf disks are incubated at 20° C. and 75% rh under a light regime of 12 h light/12 h darkness in a climate cabinet and the activity of a compound is assessed as percent disease control compared to untreated when an appropriate level of disease damage appears in untreated check leaf disks (5-7 days after application).

As for `Cc1ccccc1-c1cccc(-c2ncc3ccccc3n2)n1` [2/4], the pest or weed control at 200 ppm in the test with Alternaria solani is at least 80%.
Take `COc1ccccc1-c1cccc(-c2ncc3ccccc3n2)n1` [2/15]: the pest or weed control at 200 ppm with Alternaria solani was at least 80%.
In the case of `CCOc1ccccc1-c1cccc(-c2ncc3ccccc3n2)n1` [2/30], the pest or weed control at 200 ppm in the test on Plasmopara viticola and in the test on Alternaria solani was at least 80% in each case.
In the case of `COc1ccc(F)cc1-c1cccc(-c2ncc3ccccc3n2)n1` [2/32], the pest or weed control at 200 ppm (in the test on Alternaria solani; in test [1]) was at least 80% each time.
With `COc1ccc(-c2cccc(-c3ncc4ccccc4n3)n2)c(OC)c1` [2/33], in the test with Alternaria solani, the pest or weed control at 200 ppm was at least 80%.
Consider `COc1ccc(C)cc1-c1cccc(-c2ncc3ccccc3n2)n1` [2/38], for which the pest or weed control at 200 ppm (in test [2]; in the test on Alternaria solani) was at least 80% throughout.
For the compound `COc1ccc(OC)c(-c2cccc(-c3ncc4ccccc4n3)n2)c1` [2/46], the pest or weed control at 200 ppm in the test with Plasmopara viticola and in the test with Alternaria solani was at least 80% each time.
`COc1ccc(-c2cccc(-c3ncc4ccccc4n3)n2)c(C)c1` [2/66]: the pest or weed control at 200 ppm (in test [2]; with Alternaria solani) was at least 80% throughout.
For `COc1cccc(F)c1-c1cccc(-c2ncc3ccccc3n2)n1` [2/70], the pest or weed control at 200 ppm with Plasmopara viticola and in the test on Alternaria solani was at least 80% each time.
In the case of `Cc1ccc(F)c(-c2cccc(-c3ncc4ccccc4n3)n2)c1` [2/79], the pest or weed control at 200 ppm with Plasmopara viticola was at least 80%.
With `Cc1ccc(-c2cccc(-c3ncc4ccccc4n3)n2)c(C)c1` [2/94], the pest or weed control at 200 ppm in the test on Plasmopara viticola and in the test on Alternaria solani was at least 80% throughout.
With `Cc1ccc(-c2nc(-c3ncc4ccccc4n3)ccc2C)cc1C` [3/11], the pest or weed control at 200 ppm with Plasmopara viticola and in the test on Alternaria solani was at least 80% throughout.
Take `Cc1cc(F)ccc1-c1nc(-c2ncc3ccccc3n2)ccc1C` [3/17]: the pest or weed control at 200 ppm in the test with Alternaria solani is at least 80%.
Consider `CCc1ccccc1-c1nc(-c2ncc3ccccc3n2)ccc1C` [3/37], for which the pest or weed control at 200 ppm in the test with Plasmopara viticola and in the test on Alternaria solani was at least 80% in each case.
`COc1ccc(-c2nc(-c3ncc4ccccc4n3)ccc2C)cc1` [3/70]: the pest or weed control at 200 ppm (in the test with Alternaria solani; in test [1]) was at least 80% throughout.
As for `c1cc(Oc2ccc3ccccc3c2)nc(-c2ncc3ccccc3n2)c1` [4/10], the pest or weed control at 200 ppm with Plasmopara viticola and with Alternaria solani was at least 80% throughout.
Regarding `COc1ccccc1Oc1cccc(-c2ncc3ccccc3n2)n1` [4/15], the pest or weed control at 200 ppm in test [1] is at least 80%.
Regarding `Clc1ccccc1Oc1cccc(-c2ncc3ccccc3n2)n1` [4/23], the pest or weed control at 200 ppm in test [1] was at least 80%.
For the compound `CSc1ccc(Oc2nc(-c3ncc4ccccc4n3)ccc2C)cc1` [5/4], the pest or weed control at 200 ppm in the test with Plasmopara viticola and with Alternaria solani was at least 80% in each case.
For the compound `Cc1ccc(-c2ncc3ccccc3n2)nc1Oc1cccc2ccccc12` [5/13], the pest or weed control at 200 ppm (in the test with Alternaria solani; in test [1]) was at least 80% each time.
For `N#Cc1ccc(Cc2cccc(-c3ncc4ccccc4n3)n2)cc1` [6/31], in test [2], the pest or weed control at 200 ppm was at least 80%.
With `N#Cc1ccccc1Cc1cccc(-c2ncc3ccccc3n2)n1` [6/32], the pest or weed control at 200 ppm in test [2] was at least 80%.
As for `N#Cc1c(Cl)cccc1Cc1cccc(-c2ncc3ccccc3n2)n1` [6/33], the pest or weed control at 200 ppm in test [2] is at least 80%.
Consider `Fc1ccc(Br)c(Cc2cccc(-c3ncc4ccccc4n3)n2)c1` [6/34], for which, in test [2], the pest or weed control at 200 ppm is at least 80%.
Consider `Fc1cc(Br)ccc1Cc1cncc(-c2ncc3ccccc3n2)c1` [6/35], for which, in test [2], the pest or weed control at 200 ppm was at least 80%.
Regarding `Clc1ccc(Cc2cccc(-c3ncc4ccccc4n3)n2)c(Cl)c1` [6/37], the pest or weed control at 200 ppm in test [2] was at least 80%.
On to `Cc1ccc(Cc2cccc(-c3ncc4ccccc4n3)n2)c(C)c1` [6/38], for which the pest or weed control at 200 ppm in test [2] was at least 80%.
For `COC(=O)Nc1ccc(Cc2cccc(-c3ncc4ccccc4n3)n2)cc1` [6/39], the pest or weed control at 200 ppm in test [2] is at least 80%.
With `Cc1cc(C)c(Cc2cccc(-c3ncc4ccccc4n3)n2)c(C)c1` [6/40], the pest or weed control at 200 ppm in test [2] is at least 80%.
On to `Cc1ccc(C)c(Cc2cccc(-c3ncc4ccccc4n3)n2)c1` [6/41], for which the pest or weed control at 200 ppm in test [2] was at least 80%.
On the same count and under the same terms, the value for `Cc1ccc(Cc2cccc(-c3ncc4ccccc4n3)n2)cc1Cl` [6/42] was at least 80%; that for `COc1ccc(OC)c(Cc2cccc(-c3ncc4ccccc4n3)n2)c1` [6/43] was at least 80%.
As to `Cc1ccc(-c2ncc3ccccc3n2)nc1Cc1ccc(Cl)cc1` [7/18], the pest or weed control at 200 ppm (in the test with Alternaria solani; in test [1]) was at least 80% each time.
Consider `Cc1ccccc1Cc1nc(-c2ncc3ccccc3n2)ccc1C` [7/20], for which the pest or weed control at 200 ppm in test [2] was at least 80%.
On the same count and under the same terms, the value for `COc1ccccc1Cc1nc(-c2ncc3ccccc3n2)ccc1C` [7/21] was at least 80%.
Take `Fc1ccc(Sc2cccc(-c3ncc4ccccc4n3)n2)cc1` [9/4]: the pest or weed control at 200 ppm (with Alternaria solani; in test [1]) was at least 80% throughout.
Consider `Cc1ccc(-c2ncc3ccccc3n2)nc1Sc1ccccc1` [9/6], for which the pest or weed control at 200 ppm (with Alternaria solani; in test [1]) was at least 80% in each case.
For the compound `Cc1ccc(-c2ncc3ccccc3n2)nc1Sc1ccccc1Cl` [9/7], the pest or weed control at 200 ppm (in the test on Alternaria solani; in test [1]) was at least 80% each time.
Take `Cc1ccc(-c2ncc3ccccc3n2)nc1C` [10/3]: the pest or weed control at 200 ppm with Plasmopara viticola was at least 80%.
Take `c1ccc(CCc2cccc(-c3ncc4ccccc4n3)n2)cc1` [10/17]: the pest or weed control at 200 ppm in test [2] is at least 80%.
Turning to `C(=C\c1cccc(-c2ncc3ccccc3n2)n1)/c1ccccc1` [10/20], the pest or weed control at 200 ppm in test [2] is at least 80%.
Turning to `C(=C/c1cccc(-c2ncc3ccccc3n2)n1)/c1ccccc1` [10/21], in test [2], the pest or weed control at 200 ppm was at least 80%.
`Cc1ccc(-c2ncc3ccccc3n2)nc1/C=C\c1ccccc1` [10/22]: in test [2], the pest or weed control at 200 ppm is at least 80%.
In the case of `Cc1ccc(-c2ncc3ccccc3n2)nc1/C=C/c1ccccc1` [10/23], the pest or weed control at 200 ppm in test [2] was at least 80%.
For the compound `Cc1ccc(-c2ncc3cc(N)ccc3n2)nc1-c1ccccc1` [11/2], the pest or weed control at 200 ppm in the test on Plasmopara viticola is at least 80%.
Turning to `Cc1ccc(-c2ncc3ccc(Cl)cc3n2)nc1-c1ccccc1` [11/11], in test [2], the pest or weed control at 200 ppm was at least 80%.
Still for that read-out and setting: the figure for `Cc1ccc2cnc(-c3ccc(C)c(-c4ccccc4)n3)nc2c1` [11/12] is at least 80%; for `Cc1ccc(-c2ncc3cccc(Cl)c3n2)nc1-c1ccccc1` [11/13] it is at least 80%; for `Cc1ccc(-c2nc(C)c3cccc(Cl)c3n2)nc1-c1ccccc1` [11/14] it is at least 80%.
Regarding `Cc1ccc(-c2ncc3cccc(C)c3n2)nc1-c1ccccc1` [11/15], the pest or weed control at 200 ppm in test [2] was at least 80%.
Regarding `Cc1ccc(-c2nc(C)c3cccc(C)c3n2)nc1-c1ccccc1` [11/16], the pest or weed control at 200 ppm in test [2] was at least 80%.
With `Cc1ccc(-c2ncc3c(C)cccc3n2)nc1-c1ccccc1` [11/18], the pest or weed control at 200 ppm in test [2] is at least 80%.
Consider `COc1ccc2nc(-c3ccc(C)c(-c4ccccc4)n3)ncc2c1` [11/19], for which, in test [2], the pest or weed control at 200 ppm was at least 80%.
The same measure, in the same setting: the figure for `COc1ccc2nc(-c3ccc(C)c(-c4ccccc4)n3)nc(C)c2c1` [11/20] is at least 80%; for `Cc1ccc(-c2nc(C)c3c(C)cccc3n2)nc1-c1ccccc1` [11/21] it is at least 80%.
On the same count and under the same terms, the value for `CCCCc1nc(-c2cccc(Cc3ccccc3)n2)nc2ccccc12` [12/5] was at least 80%; that for `CC(C)Oc1nc(-c2cccc(Cc3ccccc3)n2)nc2ccccc12` [12/9] was at least 80%; that for `COCCOc1nc(-c2cccc(Cc3ccccc3)n2)nc2ccccc12` [12/10] was at least 80%.
Regarding `CCCc1nc(-c2cccc(C(Cc3ccccc3)c3ccccc3)n2)nc2ccccc12` (stereo not shown) [12/13], the pest or weed control at 200 ppm in test [2] was at least 80%.
For `CCc1nc(-c2cccc(Cc3ccccc3)n2)nc2ccccc12` [12/15], the pest or weed control at 200 ppm in test [2] was at least 80%.
`OCc1nc(-c2cccc(Cc3ccccc3)n2)nc2ccccc12` [12/16]: the pest or weed control at 200 ppm in test [2] was at least 80%.
Consider `COc1ccc(-c2ncc3ccccc3n2)nc1-c1ccc(C)cc1` [14/2], for which the pest or weed control at 200 ppm in test [2] is at least 80%.
Consider `COc1ccc(-c2nc(-c3ncc4ccccc4n3)ccc2OC)cc1` [14/3], for which, in test [2], the pest or weed control at 200 ppm is at least 80%.
Take `COc1ccc(-c2ncc3ccccc3n2)nc1-c1ccccc1` [14/4]: in test [2], the pest or weed control at 200 ppm was at least 80%.
Same read-out and setting: the figure for `COc1ccc(-c2ncc3ccccc3n2)nc1-c1ccc(F)cc1` [14/5] is at least 80%.
